Legend:
CHO cells = experiment: Study of metabolism in vitro in CHO cells, steroids in culture medium by GC/MS; conditions: CHO cells
Description: Plasma, brain and culture medium levels of pregnenolone (5-Pregnen-3β-ol-20-one), allopregnanolone (3α-hydroxy-5α-pregnan-20-one), epiallopregnanolone (3β-hydroxy-5α-pregnan-ol-20-one), testosterone, and 5α dihydrotestosterone were determined by GC/MS according to the of estraction, purification and quantification protocol described previously (George O, et al., Biol Psychiatry. 2010 68: 956-63, Vallee M, et al., Anal Biochem. 2000, 287:153-66).
The CHO-K1 cell line (#CCL-61, ATCC-LGC, USA) derived as a subclone from the parental CHO cell line initiated from a biopsy of an adult Chinese hamster ovary was used. The CHO-K1 cells were seeded on 24-well plates (#353047, BD Biosciences, USA) to the appropriate concentration (25×10^4 cells/well) in fresh, antibiotic-free medium constituted by 90% DMEM-Glutamax; (#31966-21, Life technologies, USA) and 10% Fetal Bovine Serum (#10270-106, Life technologies, USA).
In this example the inventors further analyzed the metabolism of pregnenolone derivatives using an in vitro test in CHO cells. These cells derived from the ovary have all the enzymes needed to metabolize pregnenolone in down stream steroids.

CB1 receptor = CB1 receptor (Mus musculus, UniProt P47746); experiment: THC-induced cannabinoid tetrad (body temperature, locomotor activity, catalepsy, analgesia); type: in vivo, mice; parameters: tissue Charles River Laboratories (France) (animals); host or cells: living mice, whole animal; conditions: for % Inhibition temperature decrease / % increase in motor activity: mice, THC 10 mg/kg, compounds 6 mg/kg 15-30 min before THC
CB1 receptor, sequence (P47746 whole entry): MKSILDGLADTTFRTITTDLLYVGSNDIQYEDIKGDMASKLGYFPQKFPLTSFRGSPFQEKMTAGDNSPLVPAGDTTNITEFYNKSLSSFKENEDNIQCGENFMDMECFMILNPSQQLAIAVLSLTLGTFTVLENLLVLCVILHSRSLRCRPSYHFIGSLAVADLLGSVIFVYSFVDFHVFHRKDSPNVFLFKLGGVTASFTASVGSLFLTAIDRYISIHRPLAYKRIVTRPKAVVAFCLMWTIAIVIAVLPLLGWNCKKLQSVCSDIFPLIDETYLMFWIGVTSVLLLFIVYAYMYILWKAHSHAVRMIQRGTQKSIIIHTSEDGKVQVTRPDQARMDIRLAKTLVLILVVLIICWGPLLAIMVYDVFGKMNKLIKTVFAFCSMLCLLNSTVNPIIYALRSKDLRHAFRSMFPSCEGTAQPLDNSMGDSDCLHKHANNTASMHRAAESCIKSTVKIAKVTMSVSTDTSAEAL

SMILES	metabolism in downstream active steroids (Reduced metabolism / Metabolized) (CHO cells)	other results
CC(=O)O[C@H]1CC[C@@]2(C)C(=CCC3C2CC[C@@]2(C)C3CC[C@@H]2C(C)=O)C1 (stereo partly drawn) [Compound 55, 3β-Acetoxypregnenolone]	Metabolized	–
CCO[C@H]1CC[C@@]2(C)C(=CCC3C2CC[C@@]2(C)C3CC[C@@H]2C(C)=O)C1 (stereo partly drawn) [Compound 34, 3β-Ethoxypregnenolone]	Metabolized	–
CC(=O)[C@H]1CC[C@H]2[C@@H]3CC=C4C[C@@H](OS(=O)(=O)[O-])CC[C@]4(C)[C@H]3CC[C@]12C.[Na+] [Compound 53, Pregnenolone sulfate sodium]	Metabolized	–
CC(=O)[C@@]1(Cc2ccccc2)CCC2C3CCC4=CC(=O)CC[C@]4(C)C3CC[C@@]21C (stereo partly drawn) [Compound 73, 17α-Benzylprogesterone]	Reduced metabolism	–
CC(=O)C1=CCC2C3CC=C4C[C@@H](O)CC[C@]4(C)C3CC[C@]12C (stereo partly drawn) [Compound 7, 5,16-Pregnadien-3β-ol-20-one]	Metabolized	–
C[C@]12CCC3C(CC[C@@H]4C[C@@H](O)CC[C@]34C)C1CC[C@@H]2C(=O)CO (stereo partly drawn) [Compound 75, 5α-Pregnan-3α,21-diol-20-one]	Metabolized	–
CCC1=CC[C@H]2[C@@H]3CC=C4C[C@@H](O)CC[C@]4(C)[C@H]3CC[C@]12C [Compound 6, 5,16-Pregnadien-3β-ol]	Metabolized	–
C[C@]12CC[C@H](O)CC1=CCC1C2CC[C@]2(C)C(=O)CCC12 (stereo partly drawn) [Compound 50, 5-Androsten-3β-ol-17-one (DHEA), reference compound]	Metabolized	–
C=CC[C@]1(C(C)=O)CCC2C3CC=C4C[C@@H](OC)CC[C@]4(C)C3CC[C@@]21C (stereo partly drawn) [Compound 69, 17α-Allyl-3β-methoxypregnenolone]	Reduced metabolism	% Inhibition temperature decrease (CB1 receptor): 4%, P > 0.39; % increase in motor activity (CB1 receptor): −49%, P > 0.1
CCC1(c2ccc(N)cc2)CCC(=O)NC1=O (stereo not shown) [AMG, aminoglutethimide, reference compound]	–	effect on behavioural effects of THC (tetrad) (CB1 receptor; AMG 50 mg/kg ip 30 min before THC): strongly increased all the behavioural effect of THC
CC(=O)C1CCC2C3CC=C4C[C@@H](N)CC[C@]4(C)C3CC[C@]12C (stereo partly drawn) [Compound 66, 3β-Aminopregnenolone]	Metabolized	–
C[C@@H](O)[C@H]1CCC2C3CC[C@H]4C[C@@H](O)CC[C@]4(C)C3CC[C@@]21C (stereo partly drawn) [Compound 8, 5α-Pregnan-3β,20α-diol]	Metabolized	–
CC(O)C1=CC[C@H]2[C@@H]3CC=C4C[C@@H](O)CC[C@]4(C)[C@H]3CC[C@]12C (stereo partly drawn) [Compound 38, 5,16-Pregnadien-3β,20-diol]	Metabolized	–
C[C@]12CC[C@H](O)CC1=CCC1C2CC[C@@]2(C)C1CC[C@@H]2C(=O)CO (stereo partly drawn) [Compound 26, 5-Pregnen-3β,21-diol-20-one]	Metabolized	–
CC(=O)[C@]1(O)CCC2C3CC=C4C[C@@H](OC(=O)CCC(=O)O)CC[C@]4(C)C3CC[C@@]21C (stereo partly drawn) [Compound 23, 17α-Hydroxypregnenolone hemisuccinate]	Metabolized	–
CC(=O)[C@@]1(Cc2ccccc2)CCC2C3CC=C4C[C@@H](OCc5ccccc5)CC[C@]4(C)C3CC[C@@]21C (stereo partly drawn) [Compound 63, 17α-Benzyl-3β-benzyloxypregnenolone]	Reduced metabolism	–
CC(=O)[C@H]1CCC2C3CCC4=C[C@@H](O)CC[C@]4(C)C3CC[C@@]21C (stereo partly drawn) [Compound 17, 4-Pregnen-3β-ol-20-one]	Metabolized	–

SMILES	metabolism in downstream active steroids (Reduced metabolism / Metabolized) (CHO cells)	other results
CC(=O)[C@H]1CCC2C3CC[C@H]4C[C@@H](O)CC[C@]4(C)C3CC[C@@]21C (stereo partly drawn) [Compound 11, 5α-Pregnan-3β-ol-20-one (Epiallopregnanolone)]	Metabolized	–
CC(=O)[C@]1(O)CCC2C3CC=C4C[C@@H](O)CC[C@]4(C)C3CC[C@@]21C (stereo partly drawn) [Compound 22, 17α-Hydroxypregnenolone]	Metabolized	–
CCOC1(C(C)=O)CCC2C3CC=C4C[C@@H](O)CC[C@]4(C)C3CC[C@@]21C (stereo partly shown) [Compound 71, 17-Ethoxypregnenolone]	Metabolized	–
CO[C@H]1CC[C@@]2(C)C(=CCC3C2CC[C@@]2(C)C3CC[C@]2(Cc2ccccc2)C(C)=O)C1 (stereo partly drawn) [Compound 70, 17α-benzyl-3β-methoxypregnenolone]	Reduced metabolism	% Inhibition temperature decrease (CB1 receptor): 8%, P > 0.49; % increase in motor activity (CB1 receptor): 2%, P > 0.48
C[C@@H](O)[C@@]1(O)CCC2C3CCC4=CC(=O)CC[C@]4(C)C3CC[C@@]21C (stereo partly drawn) [Compound 15, 4-Pregnen-17α,20β-diol-3-one]	Metabolized	–
C[C@@H](O)[C@H]1CCC2C3CC=C4C[C@@H](O)CC[C@]4(C)C3CC[C@@]21C (stereo partly drawn) [Compound 21, 5-Pregnen-3β,20β-diol]	Metabolized	–
CO[C@H]1CC[C@@]2(C)C(=CCC3C2CC[C@@]2(C)C3CC[C@@H]2C(C)=O)C1 (stereo partly drawn) [Compound 33, 3β-Methoxypregnenolone]	Metabolized	–
C[C@@H](O)[C@H]1CCC2C3CCC4=CC(=O)CC[C@]4(C)C3CC[C@@]21C (stereo partly drawn) [Compound 19, 4-Pregnen-20β-ol-3-one]	Metabolized	–
C[C@]12CC[C@H]3[C@@H](CCC4=CC(=O)CC[C@@]43C)[C@@H]1CC[C@@H]2C(=O)CO [Compound 52, 4-Pregnen-21-ol-3,20-dione]	Metabolized	–
C[C@]12CCC3C(CC[C@H]4C[C@@H](O)CC[C@]34C)C1CC[C@@H]2C(=O)CO (stereo partly drawn) [Compound 76, 5α-Pregnan 3β,21-diol-20-one]	Metabolized	–
CC(=O)[C@H]1CCC2C3CC=C4CCCC[C@]4(C)C3CC[C@@]21C (stereo partly shown) [Compound 37, 3-Dehydroxypregnenolone]	Metabolized	–
CC(=O)C1CCC2C3CC[C@H]4C[C@@H](OC(=O)CCC(=O)O)CC[C@]4(C)C3CC[C@]12C (stereo partly drawn) [Compound 10, 5α-Pregnan-3α-ol-20-one hemisuccinate (Allopregnanolone hemisuccinate)]	Metabolized	–
CNC(C)[C@H]1CC[C@H]2[C@@H]3CC=C4C[C@@H](O)CC[C@]4(C)[C@H]3CC[C@]12C (stereo partly drawn) [Compound 67, 20-Methylamino-5-pregnen-3β-ol]	Reduced metabolism	% Inhibition temperature decrease (CB1 receptor): 28%, P < 0.05; % increase in motor activity (CB1 receptor): −20%, P > 0.35
C=CC[C@]1(C(C)=O)CCC2C3CC=C4C[C@@H](O)CC[C@]4(C)C3CC[C@@]21C (stereo partly drawn) [Compound 64, 17α-Allylpregnenolone]	Metabolized	–
CC(=O)[C@@]1(C)CCC2C3CC=C4C[C@@H](OCc5ccccc5)CC[C@]4(C)C3CC[C@@]21C (stereo partly drawn) [Compound 42, 3β-Benzyloxy-17α-methylpregnenolone]	Reduced metabolism	–
CC(=O)[C@@]1(Cc2ccccc2)CCC2C3CC=C4C[C@@H](F)CC[C@]4(C)C3CC[C@@]21C (stereo partly drawn) [Compound 74, 17α-Benzyl-3β-fluoropregnenolone]	Reduced metabolism	–
C[C@@H](O)[C@H]1CCC2C3CCC4=C[C@@H](O)CC[C@]4(C)C3CC[C@@]21C (stereo partly drawn) [Compound 13, 4-Pregnen-3β,20β-diol]	Metabolized	–

— patent publication US10150793B2, “Antagonists of CB1 receptor” (INSERM (Institut National de la Santé et de la Recherche …, priority 2011, dated 2018)
